# Experiments:
# [1] = test system: primary cortical neuronal cultures; experiment: Glutamate excitotoxicity assay, neuroprotection by CPP-PYC36 fusions; format: cell-based; settings: PYC36 alone, data not shown
# Method: Peptides ID 4052 (SEQ ID NO: 16; Table 10), Peptides ID 4052a (SEQ ID NO: 26; Table 10), and TAT peptide ([…]; SEQ ID NO: 28) were each produced as fusions to the neuroprotective peptide PYC36 ([…]; SEQ ID NO: 29) described in WO 2008/034161. The fusion peptides were assayed for their ability to confer survival on primary cortical neuronal cultures by glutamate excitotoxicity assay as described in Example of WO 2008/034161.
# CHO-K1 cells [2] = experiment: Fluorescent microscopy assessment of CPP internalisation; format: cell-based, Chinese hamster; settings: 10 μM, CM and SF (FIGS. 30-32)
# Method: (§1) CHO-K1 cells are seeded at 70,000 cells/slide chamber, and bEnd.3 cells are seeded at 40,000 cells/slide chamber. Cells are cultured for 24 h at 37° C. in 5% CO2, washed with PBS 1×, and FITC-labeled peptide (10 uM) is added to cells in 10% FBS (CM).
# (§2) Alternatively, cells in serum-free (SF) medium are incubated for 1 h at 37° C., washed twice in PBS, fixed in 10% formaladehyde/PBS (15 min at RT), washed as before, incubated in, 300 nM DAPI/PBS solution for […] at RT, washed as before, and mounted onto slides.
# [3] = test system: bEnd.3 mouse brain endothelial cells; experiment: as above; format: cell-based; settings: 10 μM, CM and SF (FIGS. 25-28)
# Method: as §1, §2
# CHO-K1 cells [4] = experiment: Flow cytometry analysis of FITC-labelled peptide cell binding/uptake; format: cell-based, Chinese hamster; settings: for cellular uptake into CHO-K1: 37° C. and 4° C. (FIG. 34); for cellular uptake into CHO-K1 cells measured using FITC: FIG. 36
# Method: (§3) CHO-K1 and bEnd.3 cells were seeded in 6-well plates at 5×10^5 cells/well in culture medium and incubated for 24 h at 37° C. in 5% CO2. Culture media was aspirated, and cells washed once with PBS to remove debris. Then, 1 mL of media containing 10 or 20 μM of FITC-peptide was added to wells, and plates were incubated for 1 h at 37° C. in 5% CO2. The cells were washed twice with 1×PBS, and 1 mL of 0.25% trypsin/EDTA added per well, and incubated at 37° C. for 4 min. Reactions were stopped by dilution of trypsin with 2 mL complete media. Cells were dislodged by gentle titration and transferred to flow cytometry tubes, washed twice with FACS buffer (0.5% BSA/0.01% NaN3/PBS), collected by centrifugation for 4 min at 1500 rpm, and resuspended in 0.3 mL fixing buffer solution (1% formaldehyde in PBS). Cells were filtered through gauze before reading on BD LSRII flow cytometer.
# (§4) Cells were seeded in 6-well plates and then grown for 24 hours before peptide was added for 1 hour at 37° C. Cells were harvested via trypsinization, and then assayed for peptide internalization/binding by flow cytometry.
# (§5) The flow cytometry procedure was initially optimized using fluorophore-labelled TAT-PYC38. Subsequently, FITC-labelled peptides from the Phase 1-Pilot and Phase 2-CPP screens were assessed at 10 μM concentrations for internalization using CHO and bEnd3 cells. Peptides that scored as positive in the cell binding/internalization assay were subjected to further analysis using different temperatures and cell lines to determine cell selectivity. The cell-binding/uptake activity of pure (>85% purity) and Pepset (purity ranges from 40-80%) peptides was also compared to determine whether peptide purity affected CPP activity.
# bEnd.3 cells = experiment: as above; format: cell-based, mouse; settings: FIG. 36
# Method: as §3, §4, §5
# CHO or bEnd.3 cells = experiment: Live confocal microscopy screen for cell internalization, cell line not specified per result; format: cell-based; settings: for cellular uptake by confocal microscopy: 10 μM (FIG. 20)
# Method: (§6) bEnd.3 and CHO-K1 cells were seeded at 3×10^4/well and 5×10^4/well respectively, on 8-well Lab-Tek H chambered coverglass slides. Slides were incubated for 24 h prior to analysis at 37° C. at 5% CO2. Wells were washed twice with medium containing 1% FBS, and 5-10 μM FITC-labeled peptide in 1% FBS media was added to wells, and cells were imaged at 30 and 60 minutes later.
# (§7) Briefly, bEnd.3 and CHO cells were seeded at subconfluent density (˜50%) on 8-well chambered coverglasses, incubated for 24 hrs, washed with culture medium containing 1% FBS and then incubated with 5-30 μM of labelled peptide for 1 hr in culture media containing 1% FBS before being imaged using confocal microscopy.
# CHO-K1 cells [5] = experiment: Live confocal microscopy of FITC-labelled peptides; format: cell-based, Chinese hamster; settings: 60 minutes (FIG. 18)
# Method: as §6, §7
# cells = experiment: Flow cytometry optimisation with FITC-labelled PYC38 (+/-TAT); format: cell-based; settings: FITC-labelled peptide
# Method: as §4, §5
# endosome = settings: Sugita et al. 2008; cited from earlier work
Substance,"internalisation into CHO-K1 cells, fluorescent microscopy (CHO-K1 cells [2])","internalisation into bEnd.3 cells, fluorescent microscopy [3]",cellular uptake into bEnd.3 cells measured using FITC (bEnd.3 cells),cellular uptake into CHO-K1 cells measured using FITC (CHO-K1 cells [4]),other results
"GLQGRRRQGYQSIKP (GLQRRRQGYQSIKP) [PYC36, neuroprotective peptide described in WO 2008/034161]",,,,,neuroprotective activity following glutamate induced neural damage [1]: negligible neuroprotective activity
0045 (PFLKRVPACLRLRR) [compound 0045],evidence for internalisation of the peptide into CHO-K1 cells,evidence for internalisation of the peptide into bEnd.3 cells,,,cellular uptake into CHO-K1 (CHO-K1 cells [4]): high uptake
9170 (RCGRASRCRVRWMRRRRI) [compound 9170],evidence for internalisation of the peptide into CHO-K1 cells,evidence for internalisation of the peptide into bEnd.3 cells,high uptake,high uptake,cellular uptake by confocal microscopy (CHO or bEnd.3 cells): evidence for cellular uptake; cellular uptake into CHO-K1 (CHO-K1 cells [4]): high uptake
4052 (WGCCGRSSRRRRTR) [compound 4052],,,high uptake,high uptake,
5008 (PYSRPHVQLWYPNRESCRSLIRSLGP) [compound 5008],evidence for internalisation of the peptide into CHO-K1 cells,evidence for internalisation of the peptide into bEnd.3 cells,high uptake,high uptake,
"WTISSRRRKVNRAC [Peptide ID 4063, arginine-rich TAT-like CPP from non-coding region]",,,,,uptake into CHO-K1 cells by confocal microscopy (CHO-K1 cells [5]; 10 μM peptide): evidence of the uptake; uptake into CHO-K1 cells by confocal microscopy (CHO-K1 cells [5]; 30 μM peptide): uptake
"RFRCGRRKWQIGS [Peptide ID 9072, arginine-rich TAT-like CPP from non-coding region]",,,,,"cellular uptake by confocal microscopy (CHO or bEnd.3 cells): evidence for cellular uptake; uptake into CHO-K1 cells, flow cytometry curve (CHO-K1 cells [4]; 10 μM, 37° C., vs PYC38-TAT positive control (FIG. 15)): largely overlaps with that for the positive control"
"rhaplarGswrGqpqqGpqrrGqlGG [PYC38, reference compound]",,,,,"uptake by confocal microscopy, control peptides (CHO or bEnd.3 cells; 5-30 μM labelled peptide, 1 hr): no uptake; level of cell binding/internalization, PYC38-TAT versus PYC38 (cells): significantly lower; uptake into CHO-K1 cells by confocal microscopy (CHO-K1 cells [5]; 5 μM peptide): no detectable evidence of uptake"
transferrin: named in cited endosome escape study,,,,,efficiency of endosome escape (endosome): low

# — US9880151B2, “Method of determining, identifying or isolating cell-penetrating peptides” (Phylogica Limited, priority 2011, dated 2018)
